# Measured values taken from US9364566B2, “Aqueous formulation for selective targeting and delivering gene to cancer cells” (Council of Scientific and Industrial Research, priority 2006, dated 2016).
# Tested on: non-cancer cells
# Assay: Toxicity to non-cancer cells
# Assay type: cell-based
# Details: at the concentration at which dexamethasone is used in the formulation
# Excerpt: In the context the present invention stands with complete patentability because the formulation uses our own patented cationic lipid along side a secondary co-lipid dexamethasone, and a common, generic, glucocorticoid. The dexamethasone is not modified at all and is used as such. […] The use of dexamethasone for the targeted gene delivery to cancer is not documented in any of these papers.
# Cell-Culture—MCF-7, CHO, A549 cells were purchased from National Center for Cell Sciences (Pune, India) and were mycoplasma free. Cells were cultured in DMEM medium (Sigma Chemical Co., St. Louis, Mo.) containing 10% fetal bovine serum (Sigma Chemical Co., St. Louis, Mo.) and 1% penicillin-streptomycin at […] in a humidified atmosphere of 5% CO2 in air. Cultures of 85-90% confluency were used for all of the experiments. The cells were trypsinized, counted, subcultured in 96-well plates for transfection and viability studies. The cells were allowed to adhere overnight before they were used for experiments.
smiles,measurement,value
C[C@@H]1C[C@H]2[C@@H]3CCC4=CC(=O)C=C[C@]4(C)[C@@]3(F)[C@@H](O)C[C@]2(C)[C@@]1(O)C(=O)CO [dexamethasone],toxicity to non-cancer cells,did not induce any toxicity
